The record followed here is article PMC10823733, “Promising antibacterial efficacy of arenicin peptides against the emerging opportunistic pathogen Mycobacterium abscessus” (Journal of Biomedical Science, 2024).

In general, CC50 refers to the concentration giving 50% cytotoxicity. As a reminder, the HC50 is the concentration giving 50% haemolysis.

The format of series [1] is cell-based, human. The method, then: (§1) The toxicity of each peptide was evaluated on human cell lines using a resazurin assay as previously described. Human lung epithelial cells BEAS-2B (ATCC CRL-9609), liver cells HepG2 (ATCC HB-8065), and kidney cells A498 (ATCC HTB-44) were used. All cells were cultured in Dulbecco's modified essential medium (DMEM) supplemented with 10% heat-inactivated fetal calf serum (FBS, Thermo Fisher Scientific), and 1% L-glutamine (Thermo Fisher Scientific) (DMEM^FBS) at 37 °C in a 5% CO2 incubator to subconfluent concentrations. Cells were detached with trypsin–EDTA solution (Thermo Fisher Scientific), and around 1 × 10^4 cells/well were seeded in 96-well flat-bottom microplates (Greiner Bio-One) with a lid, and cultured for additional 48–72 h at 37 °C and 5% CO2 until cell confluence. The medium was removed, and 100 µL of serial two-fold dilutions of the peptides in DMEM^FBS were added to each well. Following a 48 h-incubation period at 37 °C and 5% CO2, cell viability was evaluated using the resazurin assay as described above. Fluorescence of the resazurin metabolite resorufin (λex/λem = 530/590 nm) was measured after 2 h incubation at 37 °C and 5% CO2 in the dark, with a microplate reader (Biotek, Synergy Mx, Colmar, France). The cytotoxic concentration of peptide leading to 50% cell death as compared to the control was defined as the CC50, and was determined by fitting the RFU% sigmoidal dose–response curves in Kaleidagraph 4.2 software (Synergy Software). All experiments were conducted in triplicate.

The format of series [2] is cell-based, human. On the procedure:
as §1
This is another data set of the same source.

The nature of series [3]: Cytotoxic assay on human cells (resazurin). It is filed as cell-based. To be noted: A498, 48 h exposure. The method, then:
as §1
A general note: The colour change of resazurin is a common sign of viable cells or microbes.

Series [4] has as its system human erythrocytes. The format is cell-based. On the procedure:
The hemolytic activity of each peptide was determined as previously described. Briefly, human erythrocytes (red blood cells, hRBC; Divbioscience, Ulvenhout, Netherlands) were washed 2-times with sterile phosphate buffered saline (PBS; Thermo Fisher Scientific) and pelleted by centrifugation at 800 rpm for 5 min; then resuspended in DMEM^FBS to a final erythrocyte concentration of 8% (v/v). Then, 100 µL of this hRBC solution was distributed to each well of sterile 96-well flat-bottom microplates (Greiner Bio-One) containing serial two-fold dilutions of arenicin, arenicin-Abu derivative or controls in DMEM^FBS to a final volume of 200 µL. After 1 h incubation at 37 °C, microplates were centrifuged at 800 rpm for 5 min. Then, 100 µL of supernatant were carefully transferred to a new 96-well microplate, and OD405 corresponding to the release of hemoglobin was measured using a microplate reader (Biotek, Synergy Mx, Colmar, France). DMEM^FBS and Triton-X100 at 0.1% (v/v) were used as negative (i.e., 0% hemolysis) and positive (i.e., 100% hemolysis) controls, respectively. The concentration of peptide leading to 10% and 50% of hemolysis compared to the positive control was defined as the HC10 and HC50, respectively, and was determined by fitting the dose–response curves in Kaleidagraph 4.2 software (Synergy Software). All experiments were done in triplicate.

Like-named read-outs stand apart in the source and are kept apart here. Positions of bridges follow the written chain, without caps; N, C: chain ends. Non-standard residues stand in square brackets, D forms with d. Residues, ends and D or L forms follow the SMILES beside them. Abu = CC[C@H](N)C(=O)O

In the case of `CC[C@H](NC(=O)[C@H](CCCNC(=N)N)NC(=O)[C@H](CCCNC(=N)N)NC(=O)[C@H](Cc1ccc(O)cc1)NC(=O)[C@H](CCCNC(=N)N)NC(=O)[C@@H](NC(=O)[C@H](CC(C)C)NC(=O)[C@@H](NC(=O)CNC(=O)[C@H](CCCNC(=N)N)NC(=O)[C@@H](NC(=O)[C@H](CCCNC(=N)N)NC(=O)[C@@H](NC(=O)[C@H](Cc1ccc(O)cc1)NC(=O)[C@H](C)NC(=O)[C@H](Cc1ccc(O)cc1)NC(=O)[C@@H](NC(=O)[C@H](CC)NC(=O)[C@H](Cc1c[nH]c2ccccc12)NC(=O)[C@@H](N)CCCNC(=N)N)C(C)C)C(C)C)[C@@H](C)CC)C(C)C)C(C)C)C(=O)N[C@@H](Cc1c[nH]c2ccccc12)C(=O)O` [Ar-2-Abu] (H-RW[Abu]VYAYVRIRGVLVRYRR[Abu]W-OH), the CC50 in series [1] was > 100 µM; in series [2], > 100 µM; in series [3], 92.1 ± 2.3 µM. Further, the HC10 in series [4] (red cells of human, 1 h) amounted to 15.4 ± 1.0 µM. The HC50 in series [4] (red cells of human, 1 h) was > 100 µM.

`CC[C@H](C)[C@@H]1NC(=O)[C@H](CCCNC(=N)N)NC(=O)[C@H](C(C)C)NC(=O)[C@H](Cc2ccc(O)cc2)NC(=O)[C@H](C)NC(=O)[C@H](Cc2ccc(O)cc2)NC(=O)[C@H](C(C)C)NC(=O)[C@@H](NC(=O)[C@H](Cc2c[nH]c3ccccc23)NC(=O)[C@@H](N)CCCNC(=N)N)CSSC[C@@H](C(=O)N[C@@H](Cc2c[nH]c3ccccc23)C(=O)O)NC(=O)[C@H](CCCNC(=N)N)NC(=O)[C@H](CCCNC(=N)N)NC(=O)[C@H](Cc2ccc(O)cc2)NC(=O)[C@H](CCCNC(=N)N)NC(=O)[C@H](C(C)C)NC(=O)[C@H](CC(C)C)NC(=O)[C@H](C(C)C)NC(=O)CNC(=O)[C@H](CCCNC(=N)N)NC1=O` [Ar-2] (H-RWCVYAYVRIRGVLVRYRRCW-OH; disulfide 3-20): the results for the CC50 in series [1], in series [2] and in series [3] were > 100 µM, > 100 µM and 37.7 ± 1.1 µM, respectively. Besides, in series [4], the HC50 is listed as 29.2 µM. The HC10 in series [4] (red cells of human, 1 h) was 4.9 ± 0.7 µM.

As to `CC[C@H](NC(=O)[C@H](CCCNC(=N)N)NC(=O)[C@H](CCCNC(=N)N)NC(=O)[C@H](Cc1ccc(O)cc1)NC(=O)[C@@H]1CSSC[C@H](NC(=O)[C@@H](NC(=O)[C@H](Cc2ccc(O)cc2)NC(=O)[C@H](Cc2c[nH]c3ccccc23)NC(=O)[C@H](CC)NC(=O)[C@H](Cc2ccccc2)NC(=O)CN)C(C)C)C(=O)N[C@@H](C(C)C)C(=O)N[C@@H](Cc2ccc(O)cc2)C(=O)N[C@@H](CCCNC(=N)N)C(=O)N[C@@H](CC(N)=O)C(=O)NCC(=O)N[C@@H](C(C)C)C(=O)N[C@@H](CCCNC(=N)N)C(=O)N[C@@H](C(C)C)C(=O)N1)C(=O)N[C@@H](CC(N)=O)C(=O)O` [Ar-3(7–16)] (H-GF[Abu]WYVCVYRNGVRVCYRR[Abu]N-OH; disulfide 7-16), the values for the CC50 in series [1], in series [2] and in series [3] were > 100 µM, > 100 µM and 37.7 ± 1.2 µM, respectively. For the same compound, in series [4] (red cells of human, 1 h), the HC10 turned out to be 41.1 ± 4.3 µM. Moreover, the 50% haemolytic concentration (HC50) in series [4] (red cells of human, 1 h) is > 100 µM.
